# Data as given in US9481648B2, “Kinase inhibitors” (Respivert Limited, priority 2013, dated 2016).
# Like-named read-outs stand apart in the source and are kept apart here.
# Columns and labels:
# [1] = Plasma pharmacokinetics in rats, single intravenous or oral administration; type: in vivo, rat (male Wistar); details: rats
# Procedure: Studies were conducted by Sai Life Sciences (Hinjewadi, Pune, India) to investigate the plasma pharmacokinetics and total colon tissue distribution of compounds of the invention. In particular, pharmacokinetic studies were carried out in: • male C57BL/6 mice, following a single oral administration; and • male Wistar rats following a single intravenous or oral administration.
# CYP3A4 = CYP3A4 (Homo sapiens (Human), UniProt P08684); assay: CYP3A4 inhibition study; type: in vitro ADME; details: for inhibition at 15 µM: human, read-out: 15 μM % Inh
# Sequence of CYP3A4 (P08684 whole entry): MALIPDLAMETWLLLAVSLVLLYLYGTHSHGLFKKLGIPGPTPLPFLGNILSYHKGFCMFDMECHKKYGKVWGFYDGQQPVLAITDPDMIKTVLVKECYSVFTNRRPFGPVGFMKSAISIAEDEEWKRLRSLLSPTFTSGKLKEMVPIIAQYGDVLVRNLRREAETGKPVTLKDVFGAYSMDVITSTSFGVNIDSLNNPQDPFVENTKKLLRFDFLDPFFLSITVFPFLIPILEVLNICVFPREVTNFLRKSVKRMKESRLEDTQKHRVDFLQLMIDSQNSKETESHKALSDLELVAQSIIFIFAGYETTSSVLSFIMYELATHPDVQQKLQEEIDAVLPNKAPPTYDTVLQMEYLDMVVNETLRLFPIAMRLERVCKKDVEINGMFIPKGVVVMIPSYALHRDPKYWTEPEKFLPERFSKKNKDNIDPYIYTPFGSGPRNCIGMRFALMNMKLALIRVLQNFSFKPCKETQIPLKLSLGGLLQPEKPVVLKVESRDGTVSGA
# Procedure: (§1) Assessment of certain in vitro ADME (absorption, distribution, metabolism, and excretion) parameters for certain compounds of the invention was conducted by BioFocus (Saffron Walden, UK).
# CYP2C9 = CYP2C9 (Homo sapiens (Human), UniProt P11712); assay: CYP2C9 inhibition study; type: in vitro ADME; details: for inhibition at 15 µM: human, read-out: 15 μM % Inh
# Sequence of CYP2C9 (P11712 whole entry): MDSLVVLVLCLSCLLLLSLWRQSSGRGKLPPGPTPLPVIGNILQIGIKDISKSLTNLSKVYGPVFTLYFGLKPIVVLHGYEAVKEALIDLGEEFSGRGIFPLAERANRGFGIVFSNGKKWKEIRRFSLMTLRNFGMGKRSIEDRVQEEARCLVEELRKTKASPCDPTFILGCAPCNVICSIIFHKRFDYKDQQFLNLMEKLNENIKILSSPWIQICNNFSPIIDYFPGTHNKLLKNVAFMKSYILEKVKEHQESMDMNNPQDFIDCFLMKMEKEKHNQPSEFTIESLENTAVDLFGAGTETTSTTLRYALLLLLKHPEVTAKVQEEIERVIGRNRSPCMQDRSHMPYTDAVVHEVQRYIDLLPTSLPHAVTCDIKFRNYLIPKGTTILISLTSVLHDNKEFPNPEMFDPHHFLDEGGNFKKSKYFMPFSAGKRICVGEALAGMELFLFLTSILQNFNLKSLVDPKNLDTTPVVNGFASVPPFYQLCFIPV
# Procedure: as §1
# [2] = system: adoptive transfer (CD45RBhigh cells) colitis in SCID mice; assay: Adoptive transfer in mice (in vivo v); set-up: species or system mouse
# Procedure: On Study day 0, female Balb/C mice are terminated and spleens obtained for CD45RB^high cell isolation (Using SCID IBD cell Separation protocol). Approximately 4×10^5 cells/mL CD45RB^high cells are then injected intraperitoneally (100 μL/mouse) into female SCID animals. On study day 14, mice are weighed and randomized into treatment groups based on body weight. On Day 14, compounds are administered BID, via oral gavage, in a peanut oil vehicle at the dose levels outlined below in Tables 6a and 6b and a dose volume of 5 mL/kg. Treatment continues until study day 42, at which point the animals are necropsied 4 hours after the morning administration. The colon length and weight are recorded and used as a secondary endpoint in the study as a measurement of colon oedema. The colon is then divided into six cross-sections, four of which are used for histopathology scoring (primary endpoint) and two are homogenised for cytokine analysis. Data shown is the % inhibition of the induction window between naïve animals and vehicle animals, where higher inhibition implies closer to the non-diseased, naïve, phenotype.
# B-Raf = B-Raf (Homo sapiens (Human), UniProt P15056); assay: KINOMEscan binding of kinase to its standard ligand
# Sequence of B-Raf (P15056 whole entry): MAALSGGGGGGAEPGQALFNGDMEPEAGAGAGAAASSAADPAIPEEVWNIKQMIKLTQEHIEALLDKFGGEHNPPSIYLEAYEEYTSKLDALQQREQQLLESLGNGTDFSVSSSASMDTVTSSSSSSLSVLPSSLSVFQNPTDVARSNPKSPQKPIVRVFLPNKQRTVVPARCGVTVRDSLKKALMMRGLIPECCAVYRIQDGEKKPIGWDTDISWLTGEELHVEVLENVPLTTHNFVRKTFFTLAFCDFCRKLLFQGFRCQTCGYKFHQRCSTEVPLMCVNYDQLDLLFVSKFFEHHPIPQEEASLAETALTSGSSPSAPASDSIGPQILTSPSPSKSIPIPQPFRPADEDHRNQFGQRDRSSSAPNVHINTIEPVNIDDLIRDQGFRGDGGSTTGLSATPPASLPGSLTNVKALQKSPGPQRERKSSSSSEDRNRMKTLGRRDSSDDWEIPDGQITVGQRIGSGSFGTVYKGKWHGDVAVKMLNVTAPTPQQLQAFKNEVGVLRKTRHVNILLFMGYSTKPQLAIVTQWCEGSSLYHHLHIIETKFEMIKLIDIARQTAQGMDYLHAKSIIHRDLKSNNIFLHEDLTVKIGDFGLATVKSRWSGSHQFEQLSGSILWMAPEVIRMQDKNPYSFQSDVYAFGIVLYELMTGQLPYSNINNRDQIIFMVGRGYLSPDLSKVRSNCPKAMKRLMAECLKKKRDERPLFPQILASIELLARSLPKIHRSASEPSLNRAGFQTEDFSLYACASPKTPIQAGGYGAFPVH
# Procedure: (§2) Kinase enzyme binding activities of compounds disclosed herein may be determined using a proprietary assay which measures active site-directed competition binding to an immobilized ligand (Fabian, M. A. et al., Nature Biotechnol., 2005, 23:329-336). These assays may be conducted by DiscoverX (formerly Ambit; San Diego, Calif.). The percentage inhibition produced by incubation with a test compound may be calculated relative to the non-inhibited control.
# B-Raf (V600E) = B-Raf (V600E) (Homo sapiens (Human), UniProt P15056, V600E); assay: as above
# Sequence of B-Raf (V600E) (P15056 whole entry V600E): as the sequence (P15056 whole entry) above, with V600E counted along it
# Procedure: as §2
# [3] = Human hepatocyte stability test; type: in vitro ADME; details: human hepatocytes
# Procedure: as §1
# Syk = Syk (Homo sapiens (Human), UniProt P43405); assay: Syk enzyme inhibition (FRET, Z-LYTE); type: biochemical
# Procedure, shortened: (§3)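 Syk or c-Src enzyme (3000 or 2000 ng/mL solutions) was preincubated 2 h at RT with compound solutions at 1, 0.1, 0.01 or 0.001 µg/mL. Z-LYTE FRET peptide (8 µM solution) and ATP (800 µM solution for c-Src, 60 µM for Syk) were then added for 1 h, followed by protease development for 1 h. Phosphorylation was read as the coumarin/fluorescein emission ratio.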
# [4] = system: intestinal mucosa biopsies from the inflamed regions of the colon of ulcerative colitis (IBD) patients; assay: Human biopsy assay (assay l); type: cell-based; details: 1 μg/mL
# Procedure: Intestinal mucosa biopsies are obtained from the inflamed regions of the colons of IBD patients. The biopsy material is cut into small pieces (2-3 mm) and placed on steel grids in an organ culture chamber at 37° C. in a 5% CO2/95% O2 atmosphere in serum-free media. DMSO control or test compounds at the desired concentration are added to the tissue and incubated for 24 hr in the organ culture chamber. The supernatant is harvested for determination of IL-6, IL-8, IL-1β and TNFα levels by R&D ELISA.
# hERG channel = hERG channel (Homo sapiens (Human), UniProt Q12809); assay: hERG inhibition (IonWorks patch clamp electrophysiology); type: cell-based; details: human, 3 μM
# Sequence of hERG channel (Q12809 whole entry): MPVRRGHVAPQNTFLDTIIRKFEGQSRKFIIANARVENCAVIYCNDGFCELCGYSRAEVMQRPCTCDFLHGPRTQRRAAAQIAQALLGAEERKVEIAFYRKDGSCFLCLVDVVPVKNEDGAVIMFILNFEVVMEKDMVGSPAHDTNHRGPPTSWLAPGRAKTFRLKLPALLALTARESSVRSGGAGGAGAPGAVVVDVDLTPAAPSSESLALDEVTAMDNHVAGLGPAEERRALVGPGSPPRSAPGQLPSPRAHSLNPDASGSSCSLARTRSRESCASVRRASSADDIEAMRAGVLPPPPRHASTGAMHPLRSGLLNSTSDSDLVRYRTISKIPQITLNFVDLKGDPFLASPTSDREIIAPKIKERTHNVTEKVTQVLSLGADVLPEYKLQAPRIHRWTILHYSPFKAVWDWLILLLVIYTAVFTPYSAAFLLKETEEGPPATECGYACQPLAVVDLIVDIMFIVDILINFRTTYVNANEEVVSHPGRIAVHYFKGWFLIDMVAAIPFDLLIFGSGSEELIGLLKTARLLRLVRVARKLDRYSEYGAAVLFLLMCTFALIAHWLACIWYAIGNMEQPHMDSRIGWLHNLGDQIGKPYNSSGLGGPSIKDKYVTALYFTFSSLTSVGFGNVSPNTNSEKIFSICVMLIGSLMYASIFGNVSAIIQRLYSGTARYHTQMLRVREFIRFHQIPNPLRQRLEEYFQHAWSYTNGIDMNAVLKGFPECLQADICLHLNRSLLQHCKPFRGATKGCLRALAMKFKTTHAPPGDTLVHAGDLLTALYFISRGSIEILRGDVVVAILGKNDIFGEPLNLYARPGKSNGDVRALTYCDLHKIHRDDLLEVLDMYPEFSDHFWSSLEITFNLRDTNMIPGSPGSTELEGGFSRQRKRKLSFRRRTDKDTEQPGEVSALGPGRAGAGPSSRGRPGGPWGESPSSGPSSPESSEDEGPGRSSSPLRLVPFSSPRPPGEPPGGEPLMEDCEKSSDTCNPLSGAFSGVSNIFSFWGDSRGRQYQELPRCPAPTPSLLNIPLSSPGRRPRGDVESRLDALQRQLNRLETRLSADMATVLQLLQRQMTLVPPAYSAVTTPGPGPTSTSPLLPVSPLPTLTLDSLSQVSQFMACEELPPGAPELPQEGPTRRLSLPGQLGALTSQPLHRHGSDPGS
# Procedure: (§4) Compounds of the invention were tested for inhibition of the human ether a go-go (hERG) channel using IonWorks™ patch clamp electrophysiology at Essen Bioscience (Welwyn Garden City, England).
# [5] = molecular target: human ether a go-go (hERG) channel (Homo sapiens (Human), UniProt Q12809); assay: as above; type: cell-based; details: IonWorks patch clamp
# Sequence of human ether a go-go (hERG) channel (Q12809 whole entry): as above
# Procedure: as §4
# c-Src = c-Src (Homo sapiens (Human), UniProt P12931); assay: c-Src enzyme inhibition (FRET, Z-LYTE); type: biochemical
# Sequence of c-Src (P12931 whole entry, looked up): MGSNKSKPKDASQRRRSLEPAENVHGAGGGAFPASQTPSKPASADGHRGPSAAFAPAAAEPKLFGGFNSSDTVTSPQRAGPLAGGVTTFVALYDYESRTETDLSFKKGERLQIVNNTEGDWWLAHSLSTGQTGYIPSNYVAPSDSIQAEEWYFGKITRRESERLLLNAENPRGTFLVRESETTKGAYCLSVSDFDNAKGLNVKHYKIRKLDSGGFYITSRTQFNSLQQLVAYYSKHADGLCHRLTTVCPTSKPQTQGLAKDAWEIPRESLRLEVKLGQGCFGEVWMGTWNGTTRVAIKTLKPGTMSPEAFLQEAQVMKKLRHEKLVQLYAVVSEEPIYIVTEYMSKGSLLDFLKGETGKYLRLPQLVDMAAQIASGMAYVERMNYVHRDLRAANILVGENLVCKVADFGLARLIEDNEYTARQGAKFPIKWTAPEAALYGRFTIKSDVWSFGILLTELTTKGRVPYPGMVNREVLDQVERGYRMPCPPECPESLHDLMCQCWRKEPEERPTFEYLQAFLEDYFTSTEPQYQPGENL
# Procedure, shortened: as §3
# [6] = male, Wistar, rat, plasma, intravenous 0.25 mg/kg
# [7] = 3 mg/kg, adoptive transfer mouse model
# [8] = 24 hr, relative to DMSO control = 100%
compound,measurement,setting,value
COc1cc(Nc2cc(Oc3ccc(NC(=O)Nc4cc(C(C)(C)C)cc(NS(C)(=O)=O)c4OC)c4ccccc34)ccn2)cc(C(=O)NCCN2CCOCC2)c1 [Example 27],AUC(0-inf),[1]; [6],590 ng·h/mL
same,AUC(0-t),[1]; [6],588 ng·h/mL
same,half-life,[1]; [6],0.8 h
same,C0,"[1]; male, Wistar, rat, plasma, intravenous 0.25 mg/kg in 5% DMSO-7.5% Solutol HS15-87.5% normal saline",3880 ng/mL
same,Vd,"[1]; male, Wistar, rat, plasma, intravenous 0.25 mg/kg, read-out: Vss",0.1 L/kg
same,CI,[1]; intravenous 0.25 mg/kg,7.1 mL/min/kg
same,Fpo,"[1]; oral 5 mg/kg, vehicle C (Example 4) or B",0.0%
same,IC50,"CYP3A4; CYP3A4, 0 min preincubation",> 15 µM
same,IC50,"CYP3A4; CYP3A4, 30 min preincubation",8.9 µM
same,inhibition at 15 µM,"CYP3A4; CYP3A4, 0 min preincubation",19%
same,inhibition at 15 µM,"CYP3A4; CYP3A4, 30 min preincubation",57%
same,IC50,"CYP2C9; CYP2C9, 0 min preincubation",> 15 µM
same,IC50,"CYP2C9; CYP2C9, 30 min preincubation",> 13 µM
same,inhibition at 15 µM,"CYP2C9; CYP2C9, 0 min preincubation",13%
same,inhibition at 15 µM,"CYP2C9; CYP2C9, 30 min preincubation",55%
same,Colon weight:length,"[2]; 3 mg/kg BID oral gavage, adoptive transfer mouse model",0.022 ± 0.002
same,% Inhibition (of the induction window between naïve and vehicle animals),"[2]; 3 mg/kg BID oral gavage, colon weight:length",99%
same,IFNγ level in colon tissue,[2]; [7],19.1 ± 6.5 pg/mL
same,IL-8 level in colon tissue,[2]; [7],131.1 ± 56.1 pg/mL
same,levels of pro-inflammatory cytokines in samples of colon tissue,[2]; adoptive transfer mouse model,significantly reduced
same,Colon weight:length,"[2]; adoptive transfer mouse model, 0.03 mg/kg BID oral",0.047 ± 0.005
same,Colon weight:length,"[2]; adoptive transfer mouse model, 0.3 mg/kg BID oral",0.038 ± 0.004
same,Colon weight:length,"[2]; adoptive transfer mouse model, 3 mg/kg BID oral",0.034 ± 0.003
same,effect on the binding of the kinase B-Raf to its standard ligand,B-Raf,did not have any significant effect
same,effect on the binding of the kinase B-Raf (V600E) to its standard ligand,B-Raf (V600E),did not have any significant effect
same,half-life,[3],1.6 h
same,hepatocyte CLint,[3]; read-out: Mean intrinsic clearance,15 µL/min/1e6 cells
same,IC50,Syk,0.443 µM
same,"cytokine (IL-1β, IL-6 and IL-8) release compared to the DMSO control","[4]; 24 hours, biopsies from ulcerative colitis patients",significantly inhibited
same,Cytokine release from biopsies of UC patients: IL-1β release,[4]; [8],11 ± 54%
same,Cytokine release from biopsies of UC patients: IL-6 release,[4]; [8],48 ± 26%
same,Cytokine release from biopsies of UC patients: IL-8 release,[4]; [8],60 ± 15%
same,inhibition at 3 µM,hERG channel,-3 ± 5%
same,IC50,[5],> 3 µM
same,IC50,c-Src,0.026 µM
